Results reported in patent US20100222332A1, “PYRAZOLO-PYRAZINES DERIVATIVES USED AS G PROTEIN INHIBITORS” (Ipsen Pharma S.A.S., priority 2007, published 2010).
Where a name gives a salt, the structure may show the parent alone.

Key:
[1] = test system: LNCaP (human prostate cancer cells); assay: Anti-proliferative activity on LNCaP cell line (WST1 colorimetric test); assay type: cell-based; conditions: treated for 96 hours, read-out: IC50 on the cell proliferation of the LNCaP lines
Method: (§1) By way of example, the effect of a treatment on three human cell lines DU145, LNCaP and A2058 with the compounds of the examples described previously will be studied. The cell lines DU145 and LNCaP (human prostate cancer cells) and A2058 (human melanoma cancer cells) were acquired from the American Tissue Culture Collection (Rockville, Md., USA). The cells placed in 80 μl of Dulbecco's Modified Eagle medium (Gibco-Brl, Cergy-Pontoise, France) completed with 10% foetal calf serum inactivated by heating (Gibco-Brl, Cergy-Pontoise, France), 50000 units/l of penicillin and 50 mg/l streptomycin (Gibco-Brl, Cergy-Pontoise, France), and 2 mM of glutamin (Gibco-Brl, Cergy-Pontoise, France) were seeded on a 96-well plate on day 0. The cells were treated on day 1 for 96 hours with increasing concentrations of each of the compounds to be tested up to 10 μM. At the end of this period, the quantification of the cell proliferation is evaluated by a colorimetric test based on the cleavage of the tetrazolium salt WST1 by mitochondrial dehydrogenases in the viable cells leading to the formation of formazan (Boehringer Mannheim, Meylan, France). These tests are carried out in duplicate with 8 determinations per tested concentration. For each compound to be tested, the values included in the linear part of the sigmoid were retained for linear regression analysis and used in order to estimate the inhibitory concentration IC50. The products are solubilized in dimethylsulphoxide (DMSO) at 10^−2 M and finally used in culture with 0.1% DMSO.

[2] = test system: A2058 (human melanoma cancer cells); assay: Anti-proliferative activity on A2058 cell line (WST1 colorimetric test); assay type: cell-based; conditions: treated for 96 hours, read-out: IC50 on the cell proliferation of the A2058 lines
Method: as §1

SMILES	IC50 [1]	IC50 [2]	melting point
CC(C)(C)OC(=O)N[C@@H](CSSC[C@H](NC(=O)OC(C)(C)C)C(=O)N1CCn2nc(-c3ccncc3)cc2C1CCc1ccccc1)C(=O)N1CCn2nc(-c3ccncc3)cc2C1CCc1ccccc1 (mixture of isomers) [Example 3, tert-butyl {(1R)-1-[({(2R)-2-[(tert-butoxycarbonyl)amino]-3-oxo-3-[(4RS)-4-(2-phenylethyl)-2-pyridin-4-yl-6,7-dihydropyrazolo[1,5-a]pyrazin-5(4H)-yl]propyl}dithio)methyl]-2-oxo-2-[(4RS)-4-(2-phenylethyl)-2-pyridin-4-yl-6,7-dihydropyrazolo[1,5-a]pyrazin-5(4H)-yl]ethyl}carbamate] [listing 1 of 2 here]	≤ 10 µM		
N[C@@H](CSSC[C@H](N)C(=O)N1CCn2nc(-c3ccncc3)cc2C1CCc1ccccc1)C(=O)N1CCn2nc(-c3ccncc3)cc2C1CCc1ccccc1 (mixture of isomers) [Example 14, (2R)-3-({(2R)-2-amino-3-oxo-3-[(4RS)-4-(2-phenylethyl)-2-pyridin-4-yl-6,7-dihydropyrazolo[1,5-a]pyrazin-5(4H)-yl]propyl}dithio)-1-oxo-1-[(4RS)-4-(2-phenylethyl)-2-pyridin-4-yl-6,7-dihydropyrazolo[1,5-a]pyrazin-5(4H)-yl]propan-2-amine hydrochloride]	≤ 10 µM	≤ 30 µM	
N[C@@H](CSSC[C@H](N)C(=O)N1CCn2nc(-c3cccnc3)cc2C1CCc1ccccc1)C(=O)N1CCn2nc(-c3cccnc3)cc2C1CCc1ccccc1 (mixture of isomers) [Example 15, (2R)-3-({(2R)-2-amino-3-oxo-3-[(4RS)-4-(2-phenylethyl)-2-pyridin-3-yl-6,7-dihydropyrazolo[1,5-a]pyrazin-5(4H)-yl]propyl}dithio)-1-oxo-1-[(4RS)-4-(2-phenylethyl)-2-pyridin-3-yl-6,7-dihydropyrazolo[1,5-a]pyrazin-5(4H)-yl]propan-2-amine hydrochloride]	≤ 10 µM	≤ 20 µM	
CC(C)(C)OC(=O)N[C@@H](CSSC[C@H](NC(=O)OC(C)(C)C)C(=O)N1CCn2nc(-c3ccccc3)cc2C1CC1CCCCC1)C(=O)N1CCn2nc(-c3ccccc3)cc2C1CC1CCCCC1 (mixture of isomers) [Example 1, tert-butyl {(1R)-1-[({(2R)-2-[(tert-butoxycarbonyl)amino]-3-[(4RS)-4-(cyclohexylmethyl)-2-phenyl-6,7-dihydropyrazolo[1,5-a]pyrazin-5(4H)-yl]-3-oxopropyl}dithio)methyl]-2-[(4RS)-4-(cyclohexylmethyl)-2-phenyl-6,7-dihydropyrazolo[1,5-a]pyrazin-5(4H)-yl]-2-oxoethyl}carbamate]			129 to 132 °C
CC(C)(C)OC(=O)N[C@@H](CSSC[C@H](NC(=O)OC(C)(C)C)C(=O)N1CCn2nc(-c3ccccc3)cc2C1CCc1ccccc1)C(=O)N1CCn2nc(-c3ccccc3)cc2C1CCc1ccccc1 (mixture of isomers) [Example 2, tert-butyl {(1R)-1-[({(2R)-2-[(tert-butoxycarbonyl)amino]-3-oxo-3-[(4RS)-2-phenyl-4-(2-phenylethyl)-6,7-dihydropyrazolo[1,5-a]pyrazin-5(4H)-yl]propyl}dithio)methyl]-2-oxo-2-[(4RS)-2-phenyl-4-(2-phenylethyl)-6,7-dihydropyrazolo[1,5-a]pyrazin-5(4H)-yl]ethyl}carbamate]			123 to 127 °C
CC(C)(C)OC(=O)N[C@@H](CSSC[C@H](NC(=O)OC(C)(C)C)C(=O)N1CCn2nc(-c3ccncc3)cc2C1CCc1ccccc1)C(=O)N1CCn2nc(-c3ccncc3)cc2C1CCc1ccccc1 (mixture of isomers) [Example 3, tert-butyl {(1R)-1-[({(2R)-2-[(tert-butoxycarbonyl)amino]-3-oxo-3-[(4RS)-4-(2-phenylethyl)-2-pyridin-4-yl-6,7-dihydropyrazolo[1,5-a]pyrazin-5(4H)-yl]propyl}dithio)methyl]-2-oxo-2-[(4RS)-4-(2-phenylethyl)-2-pyridin-4-yl-6,7-dihydropyrazolo[1,5-a]pyrazin-5(4H)-yl]ethyl}carbamate] [listing 2 of 2 here]			149 to 152 °C
CC(C)(C)OC(=O)N[C@@H](CSSC[C@H](NC(=O)OC(C)(C)C)C(=O)N1CCn2nc(-c3cccnc3)cc2C1CCc1ccccc1)C(=O)N1CCn2nc(-c3cccnc3)cc2C1CCc1ccccc1 (mixture of isomers) [Example 4, tert-butyl {(1R)-1-[({(2R)-2-[(tert-butoxycarbonyl)amino]-3-oxo-3-[(4RS)-4-(2-phenylethyl)-2-pyridin-3-yl-6,7-dihydropyrazolo[1,5-a]pyrazin-5(4H)-yl]propyl}dithio)methyl]-2-oxo-2-[(4RS)-4-(2-phenylethyl)-2-pyridin-3-yl-6,7-dihydropyrazolo[1,5-a]pyrazin-5(4H)-yl]ethyl}carbamate]			115 to 130 °C
COc1cc(-c2cc3n(n2)CCN(C(=O)[C@H](CSSC[C@H](NC(=O)OC(C)(C)C)C(=O)N2CCn4nc(-c5cc(OC)c(OC)c(OC)c5)cc4C2CCc2ccccc2)NC(=O)OC(C)(C)C)C3CCc2ccccc2)cc(OC)c1OC (mixture of isomers) [Example 6, tert-butyl {(1R)-1-[({(2R)-2-[(tert-butoxycarbonyl)amino]-3-oxo-3-[(4RS)-4-(2-phenylethyl)-2-(3,4,5-trimethoxyphenyl)-6,7-dihydropyrazolo[1,5-a]pyrazin-5(4H)-yl]propyl}dithio)methyl]-2-oxo-2-[(4RS)-4-(2-phenylethyl)-2-(3,4,5-trimethoxyphenyl)-6,7-dihydropyrazolo[1,5-a]pyrazin-5(4H)-yl]ethyl}carbamate]			130 to 136 °C
CC(C)(C)OC(=O)N[C@@H](CSSC[C@H](NC(=O)OC(C)(C)C)C(=O)N1CCn2nc(-c3cccs3)cc2C1CCc1ccccc1)C(=O)N1CCn2nc(-c3cccs3)cc2C1CCc1ccccc1 (mixture of isomers) [Example 7, tert-butyl {(1R)-1-[({(2R)-2-[(tert-butoxycarbonyl)amino]-3-oxo-3-[(4RS)-4-(2-phenylethyl)-2-(2-thienyl)-6,7-dihydropyrazolo[1,5-a]pyrazin-5(4H)-yl]propyl}dithio)methyl]-2-oxo-2-[(4RS)-4-(2-phenylethyl)-2-(2-thienyl)-6,7-dihydropyrazolo[1,5-a]pyrazin-5(4H)-yl]ethyl}carbamate]			105 to 112 °C
CCCCC1c2cc(-c3ccccc3)nn2CCN1C(=O)[C@H](CSSC[C@H](NC(=O)OC(C)(C)C)C(=O)N1CCn2nc(-c3ccccc3)cc2C1CCCC)NC(=O)OC(C)(C)C (mixture of isomers) [Example 10, tert-butyl {(1R)-1-[({(2R)-2-[(tert-butoxycarbonyl)amino]-3-[(4RS)-4-butyl-2-phenyl-6,7-dihydropyrazolo[1,5-a]pyrazin-5(4H)-yl]-3-oxopropyl}dithio)methyl]-2-[(4RS)-4-butyl-2-phenyl-6,7-dihydropyrazolo[1,5-a]pyrazin-5(4H)-yl]-2-oxoethyl}carbamate]			95 to 102 °C
CC(C)(C)OC(=O)N[C@@H](CSSC[C@H](NC(=O)OC(C)(C)C)C(=O)N1CCCn2nc(-c3ccccc3)cc2C1CC1CCCCC1)C(=O)N1CCCn2nc(-c3ccccc3)cc2C1CC1CCCCC1 (mixture of isomers) [Example 27, tert-butyl {(1R)-1-[({(2R)-2-[(tert-butoxycarbonyl)amino]-3-[(4RS)-4-(cyclohexylmethyl)-2-phenyl-7,8-dihydro-4H-pyrazolo[1,5-a][1,4]diazepin-5(6H)-yl]-3-oxopropyl}dithio)methyl]-2-[(4RS)-4-(cyclohexylmethyl)-2-phenyl-7,8-dihydro-4H-pyrazolo[1,5-a][1,4]diazepin-5(6H)-yl]-2-oxoethyl}carbamate]			105 to 116 °C
CC(C)(C)OC(=O)N[C@@H](CSSC[C@H](NC(=O)OC(C)(C)C)C(=O)N1CCn2nc(-c3ccccc3)cc2[C@@H]1CC1CCCCC1)C(=O)N1CCn2nc(-c3ccccc3)cc2[C@@H]1CC1CCCCC1 [Example 23, tert-butyl {(1R)-1-[({(2R)-2-[(tert-butoxycarbonyl)amino]-3-[(4S)-4-(cyclohexylmethyl)-2-phenyl-6,7-dihydropyrazolo[1,5-a]pyrazin-5(4H)-yl]-3-oxopropyl}dithio)methyl]-2-[(4S)-4-(cyclohexylmethyl)-2-phenyl-6,7-dihydropyrazolo[1,5-a]pyrazin-5(4H)-yl]-2-oxoethyl}carbamate]			106 to 108 °C
CC(C)(C)OC(=O)N[C@@H](CSSC[C@H](NC(=O)OC(C)(C)C)C(=O)N1CCn2nc(-c3ccccc3)cc2[C@H]1CC1CCCCC1)C(=O)N1CCn2nc(-c3ccccc3)cc2[C@H]1CC1CCCCC1 [Example 25, tert-butyl {(1R)-1-[({(2R)-2-[(tert-butoxycarbonyl)amino]-3-[(4R)-4-(cyclohexylmethyl)-2-phenyl-6,7-dihydropyrazolo[1,5-a]pyrazin-5(4H)-yl]-3-oxopropyl}dithio)methyl]-2-[(4R)-4-(cyclohexylmethyl)-2-phenyl-6,7-dihydropyrazolo[1,5-a]pyrazin-5(4H)-yl]-2-oxoethyl}carbamate]			114 to 139 °C
